Source: ChEMBL document CHEMBL3885881, “DrugMatrix”

Species: Rattus norvegicus
Test: DrugMatrix - Regimen: Daily Repeat
Format: toxicity, organism-based, Sprague-Dawley
Design: regimen Daily Repeat, gender Male, age 6-8 weeks
Details: in vivo, po, route oral GAVAGE, vehicle .5 % CMC; for ABSOLUTE BASOPHIL / ABSOLUTE EOSINOPHIL / ABSOLUTE LYMPHOCYTE / ABSOLUTE MONOCYTE / ABSOLUTE SEGMENTED NEUTROPHIL / BASOPHIL / EOSINOPHIL / ERYTHROCYTE COUNT / HEMATOCRIT / HEMOGLOBIN / LEUKOCYTE COUNT / LYMPHOCYTE / MEAN CORPUSCULAR HEMOGLOBIN / MEAN CORPUSCULAR HEMOGLOBIN CONCENTRATION / MEAN CORPUSCULAR VOLUME / MONOCYTE / NEUTROPHIL / NUCLEATED RED BLOOD CELLS / PLATELET COUNT: tissue Blood; for ALANINE AMINOTRANSFERASE / ALBUMIN / ALKALINE PHOSPHATASE / ASPARTATE AMINOTRANSFERASE / BLOOD UREA NITROGEN / CARBON DIOXIDE / CHLORIDE / CHOLESTEROL / CREATINE PHOSPHOKINASE / CREATININE / GLUCOSE / LACTATE DEHYDROGENASE / LIPASE / PHOSPHORUS / POTASSIUM / SODIUM / TOTAL BILIRUBIN / TOTAL PROTEIN / URIC ACID: tissue Plasma
[1] = 0 mg/kg, 72 h, dose level Control, time 3 day
[2] = 0 mg/kg, 120 h, dose level Control, time 5 day
[3] = 2500 mg/kg, 72 h, dose level High, time 3 day

Structure (SMILES): CN1CCC[C@@H]1CCO[C@](C)(c1ccccc1)c1ccc(Cl)cc1 [CLEMASTINE]
- ABSOLUTE BASOPHIL [1]: 0 CELLS/uL
- ABSOLUTE EOSINOPHIL [1]: 0 CELLS/uL
- ABSOLUTE LYMPHOCYTE [1]: 12191.17 CELLS/uL
- ABSOLUTE MONOCYTE [1]: 183.17 CELLS/uL
- ABSOLUTE SEGMENTED NEUTROPHIL [1]: 1192.33 CELLS/uL
- BASOPHIL [1]: 0%
- EOSINOPHIL [1]: 0%
- ERYTHROCYTE COUNT [1]: 5.51 x10E6/uL
- HEMATOCRIT [1]: 35.45%
- HEMOGLOBIN [1]: 13.82 G/DL
- LEUKOCYTE COUNT [1]: 13.57 x10E3/uL
- LYMPHOCYTE [1]: 89.83%
- MEAN CORPUSCULAR HEMOGLOBIN [1]: 25.1 pg
- MEAN CORPUSCULAR HEMOGLOBIN CONCENTRATION [1]: 38.98 G/DL
- MEAN CORPUSCULAR VOLUME [1]: 64.42 fL
- MONOCYTE [1]: 1.33%
- NEUTROPHIL [1]: 8.83%
- NUCLEATED RED BLOOD CELLS [1]: 0 /100WBC
- PLATELET COUNT [1]: 1118.17 x10E3/uL
- ALANINE AMINOTRANSFERASE [1]: 55 u/L
- ALBUMIN [1]: 4.15 G/DL
- ALKALINE PHOSPHATASE [1]: 449.5 u/L
- ASPARTATE AMINOTRANSFERASE [1]: 112.83 u/L
- BLOOD UREA NITROGEN [1]: 17.33 mg/dL
- CARBON DIOXIDE [1]: 29.5 mmol/L
- CHLORIDE [1]: 101 MEQ/L
- CHOLESTEROL [1]: 70 mg/dL
- CREATINE PHOSPHOKINASE [1]: 1325.83 u/L
- CREATININE [1]: 0.18 mg/dL
- GLUCOSE [1]: 171.5 mg/dL
- LACTATE DEHYDROGENASE [1]: 386 u/L
- LIPASE [1]: 10 u/L
- PHOSPHORUS [1]: 11.57 mg/dL
- POTASSIUM [1]: 6.21 MEQ/L
- SODIUM [1]: 141.65 MEQ/L
- TOTAL BILIRUBIN [1]: 0.15 mg/dL
- TOTAL PROTEIN [1]: 5.75 G/DL
- URIC ACID [1]: 1.28 mg/dL
- ABSOLUTE BASOPHIL [2]: 0 CELLS/uL
- ABSOLUTE EOSINOPHIL [2]: 138.17 CELLS/uL
- ABSOLUTE LYMPHOCYTE [2]: 13283.17 CELLS/uL
- ABSOLUTE MONOCYTE [2]: 303.83 CELLS/uL
- ABSOLUTE SEGMENTED NEUTROPHIL [2]: 1308.17 CELLS/uL
- BASOPHIL [2]: 0%
- EOSINOPHIL [2]: 1%
- ERYTHROCYTE COUNT [2]: 5.32 x10E6/uL
- HEMATOCRIT [2]: 33.8%
- HEMOGLOBIN [2]: 13.63 G/DL
- LEUKOCYTE COUNT [2]: 15.03 x10E3/uL
- LYMPHOCYTE [2]: 88.33%
- MEAN CORPUSCULAR HEMOGLOBIN [2]: 25.68 pg
- MEAN CORPUSCULAR HEMOGLOBIN CONCENTRATION [2]: 40.35 G/DL
- MEAN CORPUSCULAR VOLUME [2]: 63.67 fL
- MONOCYTE [2]: 1.83%
- NEUTROPHIL [2]: 8.83%
- NUCLEATED RED BLOOD CELLS [2]: 0 /100WBC
- PLATELET COUNT [2]: 1097.5 x10E3/uL
- ALANINE AMINOTRANSFERASE [2]: 54.5 u/L
- ALBUMIN [2]: 4.27 G/DL
- ALKALINE PHOSPHATASE [2]: 337 u/L
- ASPARTATE AMINOTRANSFERASE [2]: 94.67 u/L
- BLOOD UREA NITROGEN [2]: 17 mg/dL
- CARBON DIOXIDE [2]: 28.33 mmol/L
- CHLORIDE [2]: 101.5 MEQ/L
- CHOLESTEROL [2]: 71.33 mg/dL
- CREATINE PHOSPHOKINASE [2]: 628.17 u/L
- CREATININE [2]: 0.19 mg/dL
- GLUCOSE [2]: 177.83 mg/dL
- LACTATE DEHYDROGENASE [2]: 500.5 u/L
- LIPASE [2]: 9.5 u/L
- PHOSPHORUS [2]: 12.3 mg/dL
- POTASSIUM [2]: 5.63 MEQ/L
- SODIUM [2]: 143.03 MEQ/L
- TOTAL BILIRUBIN [2]: 0.2 mg/dL
- TOTAL PROTEIN [2]: 6.02 G/DL
- URIC ACID [2]: 1.5 mg/dL
- ABSOLUTE BASOPHIL [3]: 0 CELLS/uL
- ABSOLUTE EOSINOPHIL [3]: 0 CELLS/uL
- ABSOLUTE LYMPHOCYTE [3]: 7950 CELLS/uL
- ABSOLUTE MONOCYTE [3]: 225 CELLS/uL
- ABSOLUTE SEGMENTED NEUTROPHIL [3]: 1825 CELLS/uL
- BASOPHIL [3]: 0%
- EOSINOPHIL [3]: 0%
- ERYTHROCYTE COUNT [3]: 6.97 x10E6/uL
- HEMATOCRIT [3]: 42.9%
- HEMOGLOBIN [3]: 16.67 G/DL
- LEUKOCYTE COUNT [3]: 10 x10E3/uL
- LYMPHOCYTE [3]: 77%
- MEAN CORPUSCULAR HEMOGLOBIN [3]: 23.97 pg
- MEAN CORPUSCULAR HEMOGLOBIN CONCENTRATION [3]: 38.87 G/DL
- MEAN CORPUSCULAR VOLUME [3]: 61.6 fL
- MONOCYTE [3]: 2.33%
- NEUTROPHIL [3]: 20.67%
- NUCLEATED RED BLOOD CELLS [3]: 0 /100WBC
- PLATELET COUNT [3]: 1501 x10E3/uL
- ALANINE AMINOTRANSFERASE [3]: 133 u/L
- ALBUMIN [3]: 4.1 G/DL
- ALKALINE PHOSPHATASE [3]: 344 u/L
- ASPARTATE AMINOTRANSFERASE [3]: 444 u/L
- BLOOD UREA NITROGEN [3]: 70.67 mg/dL
- CARBON DIOXIDE [3]: 23 mmol/L
- CHLORIDE [3]: 102.5 MEQ/L
- CHOLESTEROL [3]: 44.33 mg/dL
- CREATINE PHOSPHOKINASE [3]: 1897.33 u/L
- CREATININE [3]: 0.69 mg/dL
- GLUCOSE [3]: 201 mg/dL
- LACTATE DEHYDROGENASE [3]: 1757 u/L
- LIPASE [3]: 14.33 u/L
- PHOSPHORUS [3]: 18 mg/dL
- POTASSIUM [3]: 6.26 MEQ/L
- SODIUM [3]: 145.75 MEQ/L
- TOTAL BILIRUBIN [3]: 0.73 mg/dL
- TOTAL PROTEIN [3]: 5.93 G/DL
- URIC ACID [3]: 2.83 mg/dL
